In the supplement of paper PMC10307832:

Assays:
Assay in all cases: relative viability (nuclei count vs DMSO), 5 days (fraction); higher = more cells survive
Elesclomol + Trametinib = compound: CN(NC(=O)CC(=O)NN(C)C(=S)c1ccccc1)C(=S)c1ccccc1 [Elesclomol] + CC(=O)Nc1cccc(-n2c(=O)n(C3CC3)c(=O)c3c(Nc4ccc(I)cc4F)n(C)c(=O)c(C)c32)c1 [Trametinib] (partner 0.02 µM)
Procedure, shortened: (§1)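 Lung cancer cell lines were seeded in 1536-well plates and dosed by pin tool the next day, with either a single drug or a fixed anchor-drug dose combined with five library-drug doses (not always all listed) spaced in √10 steps. Five days later, one step fixed the cells and stained their nuclei (final 0.05% Triton X-100, 1% formaldehyde, 1 ug/ml Hoechst), and nuclei were counted on 4× images. Relative viability is the nuclei count in treated wells divided by the count in vehicle wells, and each value is the median of duplicate plates.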

Elesclomol + Luminespib = compound: CN(NC(=O)CC(=O)NN(C)C(=S)c1ccccc1)C(=S)c1ccccc1 [Elesclomol] + CCNC(=O)c1noc(-c2cc(C(C)C)c(O)cc2O)c1-c1ccc(CN2CCOCC2)cc1 [Luminespib] (partner 0.01 µM)
Procedure, shortened: as §1

Elesclomol + OSI-027 = compound: CN(NC(=O)CC(=O)NN(C)C(=S)c1ccccc1)C(=S)c1ccccc1 [Elesclomol] + COc1cccc2cc(-c3nc([C@H]4CC[C@H](C(=O)O)CC4)n4ncnc(N)c34)[nH]c12 [OSI-027] (partner 0.5 µM)
Procedure, shortened: as §1

Elesclomol + AZD7762 = compound: CN(NC(=O)CC(=O)NN(C)C(=S)c1ccccc1)C(=S)c1ccccc1 [Elesclomol] + NC(=O)Nc1cc(-c2cccc(F)c2)sc1C(=O)N[C@H]1CCCNC1 [AZD7762] (partner 0.2 µM)
Procedure, shortened: as §1

Elesclomol + Vorinostat = compound: CN(NC(=O)CC(=O)NN(C)C(=S)c1ccccc1)C(=S)c1ccccc1 [Elesclomol] + O=C(CCCCCCC(=O)Nc1ccccc1)NO [Vorinostat] (partner 1 µM)
Procedure, shortened: as §1

| Cell Line | relative viability (Elesclomol + Trametinib; first compound 0.003162 µM) | relative viability (Elesclomol + Trametinib; first compound 0.01 µM) | relative viability (Elesclomol + Trametinib; first compound 0.03162 µM) | relative viability (Elesclomol + Trametinib; first compound 0.1 µM) | relative viability (Elesclomol + Luminespib; first compound 0.003162 µM) | relative viability (Elesclomol + Luminespib; first compound 0.01 µM) | relative viability (Elesclomol + Luminespib; first compound 0.03162 µM) | relative viability (Elesclomol + Luminespib; first compound 0.1 µM) | relative viability (Elesclomol + OSI-027; first compound 0.003162 µM) | relative viability (Elesclomol + OSI-027; first compound 0.01 µM) | relative viability (Elesclomol + OSI-027; first compound 0.03162 µM) | relative viability (Elesclomol + OSI-027; first compound 0.1 µM) | relative viability (Elesclomol + AZD7762; first compound 0.003162 µM) | relative viability (Elesclomol + AZD7762; first compound 0.01 µM) | relative viability (Elesclomol + AZD7762; first compound 0.03162 µM) | relative viability (Elesclomol + AZD7762; first compound 0.1 µM) | relative viability (Elesclomol + Vorinostat; first compound 0.003162 µM) | relative viability (Elesclomol + Vorinostat; first compound 0.01 µM) | relative viability (Elesclomol + Vorinostat; first compound 0.03162 µM) | relative viability (Elesclomol + Vorinostat; first compound 0.1 µM) |
| --- | --- | --- | --- | --- | --- | --- | --- | --- | --- | --- | --- | --- | --- | --- | --- | --- | --- | --- | --- | --- |
| LOU-NH91 | 0.814 | 0.733 | 0.769 | 0.643 | 0.334 | 0.339 | 0.33 | 0.28 | 0.786 | 0.701 | 0.595 | 0.714 | 0.769 | 0.726 | 0.563 | 0.471 | 1.02 | 0.826 | 0.782 | 0.66 |
| LU99A | 0.618 | 0.371 | 0.58 | 0.339 | 0.264 | 0.21 | 0.227 | 0.189 | 0.309 | 0.259 | 0.295 | 0.223 | 0.357 | 0.329 | 0.418 | 0.185 | 0.438 | 0.459 | 0.429 | 0.162 |
| LXF-289 | 0.676 | 0.65 | 0.663 | 0.423 | 0.676 | 0.661 | 0.691 | 0.316 | 0.82 | 0.328 | 0.803 | 0.589 | 1.01 | 1.04 | 0.974 | 0.509 | 0.79 | 0.779 | 0.706 | 0.483 |
| NCI-H23 | 0.426 | 0.404 | 0.208 | 0.117 | 0.171 | 0.17 | 0.154 | 0.164 | 0.66 | 0.298 | 0.601 | 0.312 | 0.29 | 0.164 | 0.176 | 0.108 | 0.559 | 0.385 | 0.318 | 0.0919 |
| NCI-H322M | 0.497 | 0.423 | 0.298 | 0.217 | 0.311 | 0.288 | 0.231 | 0.14 | 0.565 | 0.328 | 0.268 | 0.116 | 0.484 | 0.411 | 0.259 | 0.161 | 0.72 | 0.42 | 0.289 | 0.191 |
| NCI-H358 | 0.107 | 0.103 | 0.0862 | 0.0746 | 0.194 | 0.141 | 0.137 | 0.117 | 0.276 | 0.116 | 0.0873 | 0.087 | 0.305 | 0.182 | 0.161 | 0.102 | 0.62 | 0.0764 | 0.0906 | 0.0819 |
| NCI-H441 | 0.498 | 0.456 | 0.418 | 0.0766 | 0.312 | 0.446 | 0.29 | 0.111 | 0.563 | 0.37 | 0.327 | 0.103 | 1.14 | 1.07 | 1.02 | 0.203 | 0.553 | 0.729 | 0.445 | 0.17 |
| NCI-H460 | 0.117 | 0.203 | 0.0139 | 0.0132 | 0.0311 | 0.0324 | 0.0198 | 0.0215 | 0.619 | 0.276 | 0.101 | 0.0137 | 0.547 | 0.513 | 0.232 | 0.048 | 0.712 | 0.508 | 0.275 | 0.018 |
| NCI-H522 | 0.698 | 0.792 | 0.821 | 0.403 | 0.958 | 1.02 | 1.06 | 0.625 | 0.716 | 0.62 | 0.634 | 0.457 | 0.955 | 0.857 | 0.756 | 0.518 | 0.927 | 0.888 | 0.862 | 0.604 |
| NCI-H596 | 0.798 | 0.865 | 0.368 | 0.237 | 0.845 | 0.924 | 0.787 | 0.186 | 0.8 | 0.694 | 0.757 | 0.206 | 1.19 | 0.943 | 0.927 | 0.252 | 0.632 | 0.577 | 0.485 | 0.219 |
| NCI-H647 | 0.553 | 0.347 | 0.235 | 0.148 | 0.113 | 0.0912 | 0.0748 | 0.0628 | 0.603 | 0.368 | 0.161 | 0.203 | 0.539 | 0.253 | 0.0623 | 0.0307 | 0.24 | 0.337 | 0.133 | 0.0479 |
| NCI-H650 | 1.02 | 0.709 | 0.265 | 0.191 | 0.791 | 0.401 | 0.196 | 0.18 | 0.555 | 0.382 | 0.229 | 0.254 | 1.23 | 0.848 | 0.387 | 0.23 | 0.539 | 0.38 | 0.184 | 0.132 |
| NCI-H727 | 0.412 | 0.362 | 0.394 | 0.376 | 0.388 | 0.478 | 0.22 | 0.123 | 0.641 | 0.426 | 0.394 | 0.251 | 0.569 | 0.683 | 0.572 | 0.346 | 1.14 | 1.18 | 1.03 | 0.641 |
| NCI-H838 | 0.56 | 0.494 | 0.518 | 0.216 | 0.33 | 0.235 | 0.166 | 0.109 | 0.331 | 0.407 | 0.378 | 0.286 | 0.989 | 0.87 | 0.735 | 0.613 | 0.723 | 0.706 | 0.609 | 0.303 |
| NCI-H1355 | 0.434 | 0.408 | 0.356 | 0.159 | 0.713 | 0.623 | 0.413 | 0.171 | 0.448 | 0.266 | 0.27 | 0.186 | 0.793 | 0.7 | 0.478 | 0.179 | 0.617 | 0.524 | 0.418 | 0.213 |
| NCI-H1395 | 1.01 | 0.626 | 0.294 | 0.215 | 0.57 | 0.498 | 0.308 | 0.292 | 0.706 | 0.435 | 0.398 | 0.227 | 0.438 | 0.431 | 0.226 | 0.202 | 0.814 | 0.46 | 0.245 | 0.215 |
| NCI-H1437 | 0.504 | 0.424 | 0.339 | 0.275 | 0.967 | 0.689 | 0.445 | 0.436 | 0.71 | 0.568 | 0.406 | 0.363 | 0.938 | 0.644 | 0.547 | 0.594 | 0.74 | 0.411 | 0.322 | 0.334 |
| NCI-H1651 | 0.854 | 0.842 | 0.858 | 0.538 | 0.944 | 0.361 | 0.157 | 0.0878 | 0.523 | 0.527 | 0.259 | 0.102 | 0.462 | 0.469 | 0.345 | 0.334 | 0.557 | 0.527 | 0.519 | 0.434 |
| NCI-H1666 | 0.801 | 0.675 | 0.689 | 0.662 | 0.962 | 0.788 | 0.521 | 0.484 | 0.807 | 0.654 | 0.464 | 0.465 | 0.784 | 0.807 | 0.492 | 0.416 | 1.05 | 0.91 | 0.836 | 0.714 |
| NCI-H1734 | 0.674 | 0.511 | 0.151 | 0.0873 | 0.189 | 0.14 | 0.122 | 0.108 | 0.573 | 0.491 | 0.178 | 0.124 | 0.518 | 0.45 | 0.145 | 0.0601 | 0.859 | 0.592 | 0.207 | 0.101 |
| NCI-H1755 | 0.772 | 0.77 | 0.774 | 0.56 | 0.418 | 0.257 | 0.452 | 0.284 | 0.756 | 0.457 | 0.66 | 0.419 | 0.457 | 0.349 | 0.38 | 0.406 | 0.742 | 0.637 | 0.787 | 0.364 |
| NCI-H1793 | 0.339 | 0.414 | 0.318 | 0.111 | 0.13 | 0.148 | 0.158 | 0.133 | 0.276 | 0.197 | 0.262 | 0.228 | 0.442 | 0.448 | 0.464 | 0.104 | 0.808 | 0.623 | 0.613 | 0.117 |
| NCI-H1915 | 0.301 | 0.242 | 0.305 | 0.118 | 0.771 |  | 0.768 | 0.331 | 0.616 |  | 0.587 | 0.357 | 0.716 | 0.663 | 0.659 | 0.368 | 0.517 | 0.324 | 0.573 | 0.205 |
| NCI-H1944 | 0.48 | 0.456 | 0.352 | 0.266 | 0.73 | 0.682 | 0.654 | 0.371 | 0.454 | 0.306 | 0.389 | 0.299 | 0.469 | 0.567 | 0.408 | 0.206 | 0.652 | 0.578 | 0.459 | 0.166 |
| NCI-H1975 | 0.356 | 0.229 | 0.14 | 0.125 | 0.126 | 0.133 | 0.133 | 0.115 | 0.863 | 0.455 | 0.392 | 0.0658 | 0.779 | 0.406 | 0.292 | 0.212 | 0.765 | 0.648 | 0.183 | 0.12 |
| NCI-H1993 | 0.544 | 0.576 | 0.495 | 0.339 | 0.764 | 0.595 | 0.466 | 0.429 | 0.552 | 0.498 | 0.616 | 0.513 | 0.712 | 0.618 | 0.475 | 0.315 | 0.897 | 0.817 | 0.469 | 0.288 |
